17 molecules from ChEMBL document CHEMBL1149482, “Syntheses of triazole-modified zanamivir analogues via click chemistry and anti-AIV activities” (Bioorg Med Chem Lett, 2006) can be followed below.

Activity calls are given as the source filed them. The calls are words filed in the database; no cut-off is given here. Where only a bound is given, the exact number is not on record here.

For orientation: EC50 means the concentration at which the effect is half-maximal. A higher EC50 goes with a less potent agent.

The test system of the first test is MDCK. Kind of test: Antiviral activity against avian influenza virus H5N1 in MDCK cells measured as reduction in infected cells relative to control. It counts as functional, cell-based. The conditions noted are these: Canis lupus familiaris.
For `CC(=O)N[C@H]1[C@H]([C@H](O)[C@H](O)CO)OC(C(=O)O)=C[C@@H]1NC(=N)N` [ZANAMIVIR], the half-maximal effective concentration (EC50) is 2.8 µM.

Turning to `CCC(O)c1cn([C@H]2C=C(C(=O)O)O[C@@H]([C@H](O)[C@H](O)CO)[C@@H]2NC(C)=O)nn1` (some centres undefined), it took 6.4 µM to reach a half-maximal effect (EC50).

For another test, the system named is MDCK. The test is described as follows: Antiviral activity against avian influenza virus H5N1 measured as protective rate against MDCK cells at 50 uM by neutral red uptake assay.
Details: not given
It counts as functional.
Take `CC(=O)N[C@H]1[C@H]([C@H](O)[C@H](O)CO)OC(C(=O)O)=C[C@@H]1n1cc(CN)nn1`: the result was inactive.

`CCc1ccc(-c2cn([C@H]3C=C(C(=O)O)O[C@@H]([C@H](O)[C@H](O)CO)[C@@H]3NC(C)=O)nn2)cc1` gave an Activity of 34.4%.

In the case of `CC(=O)N[C@H]1[C@H]([C@H](O)[C@H](O)CO)OC(C(=O)O)=C[C@@H]1n1cc(CCCO)nn1`, the Activity is listed as 6.3%.

As for `CC(=O)N[C@H]1[C@H]([C@H](O)[C@H](O)CO)OC(C(=O)O)=C[C@@H]1n1cc(-c2ccccn2)nn1`, the result was inactive.

The molecule `CC(=O)N[C@H]1[C@H]([C@H](O)[C@H](O)CO)OC(C(=O)O)=C[C@@H]1n1cc(COc2ccccc2)nn1` returned an Activity of 34.8%.

Consider `CC(=O)N[C@H]1[C@H]([C@H](O)[C@H](O)CO)OC(C(=O)O)=C[C@@H]1NC(=N)N` [ZANAMIVIR], for which the Activity is on record as 86.1%.

Consider `CC(=O)N[C@H]1[C@H]([C@H](O)[C@H](O)CO)OC(C(=O)O)=C[C@@H]1n1cc(-c2ccc(F)cc2)nn1`, for which the outcome was inactive.

The molecule `CC(=O)N[C@H]1[C@H]([C@H](O)[C@H](O)CO)OC(C(=O)O)=C[C@@H]1n1cc(CCO)nn1` gave an Activity of 14.5%.

`CC(=O)N[C@H]1[C@H]([C@H](O)[C@H](O)CO)OC(C(=O)O)=C[C@@H]1n1cc(C2CC2)nn1`: the Activity came out at 8.9%.

For `CC(=O)N[C@H]1[C@H]([C@H](O)[C@H](O)CO)OC(C(=O)O)=C[C@@H]1n1cc(-c2ccc(-c3ccccc3)cc2)nn1`, the Activity is on record as 19.1%.

The molecule `COC(=O)C1=C[C@H](n2cc(C(=O)OC)nn2)[C@@H](NC(C)=O)[C@H]([C@H](O)[C@H](O)CO)O1` came in with an Activity of 9.9%.

As to `CCC(O)c1cn([C@H]2C=C(C(=O)OCCC(C)C)O[C@@H]([C@H](O)[C@H](O)CO)[C@@H]2NC(C)=O)nn1` (some centres undefined), the Activity was 8.9%.

As for `CC(=O)N[C@H]1[C@H]([C@H](O)[C@H](O)CO)OC(C(=O)O)=C[C@@H]1n1cc(-c2ccccc2)nn1`, the Activity came out at 18.7%.

`CCC(O)c1cn([C@H]2C=C(C(=O)O)O[C@@H]([C@H](O)[C@H](O)CO)[C@@H]2NC(C)=O)nn1` (some centres undefined): the Activity is recorded as over 61.4%.

In turn, `CC(=O)N[C@H]1[C@H]([C@H](O)[C@H](O)CO)OC(C(=O)O)=C[C@@H]1n1cc(CN2CCOCC2)nn1` returned an Activity of 17.3%.

Take `CCCc1ccc(-c2cn([C@H]3C=C(C(=O)O)O[C@@H]([C@H](O)[C@H](O)CO)[C@@H]3NC(C)=O)nn2)cc1`: the Activity worked out at 22.1%.

`CCCOc1ccc(-c2cn([C@H]3C=C(C(=O)O)O[C@@H]([C@H](O)[C@H](O)CO)[C@@H]3NC(C)=O)nn2)cc1` registered an Activity of 40.2%.
